Where “and” joins values, the source holds several entries; their conditions need not be identical. Equal entries are not always repeated.
System: 519858-162-T-J1-PDC complex spheroid growth, % test/control
Assay: Anticancer human tumor 519858-162-T-J1-PDC patient-derived colon adenocarcinoma cell line growth inhibition [Asc]
Conditions: for viability, T/C: stronger effect = lower value
How it was run: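 Spheroid model: tumor line + HUVEC + hMSC. Single agents and combinations; top conc. at/near clinical Cmax (10 microM if undetermined), half-log dilutions. DMSO stocks at 800-fold test concentration.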

[1] = curve of first compound, second compound 0.0316 µM
[2] = curve of first compound, second compound 0.1 µM
[3] = curve of first compound, second compound 0.316 µM
[4] = curve of first compound, second compound 1 µM
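Note: seven day drug exposure begun three days after spheroid seeding.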
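Throughout, for viability, T/C: 100% = DMSO vehicle wells and lower values mean less viable spheroid.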

Work on Cc1nc(N2CCC3(CC2)COC(C)C3N)c(CO)nc1Sc1ccnc(N)c1Cl (stereo unspecified) + CNC(C)C(=O)NC1CN(S(=O)(=O)c2cccc(S(=O)(=O)N3CCC4CCC(C(=O)NC(c5ccccc5)c5ccccc5)N4C(=O)C(NC(=O)C(C)NC)C3)c2)CCC2CCC(C(=O)NC(c3ccccc3)c3ccccc3)N2C1=O yielded an IC50 (curve of first compound, second compound 0.00316 µM) of over 3 µM, an IC50 (curve of first compound, second compound 0.01 µM) of over 3 µM and an IC50 [1] of over 3 µM. For the same molecule, the IC50 [2] was over 3 µM, the IC50 [3] was over 3 µM and the IC50 [4] was over 3 µM. It also gave a viability, T/C (second compound 0.00316 µM, first compound 0.00949 µM) of 112%, a viability, T/C (second compound 0.00316 µM, first compound 0.03 µM) of 91.2% and a viability, T/C (second compound 0.00316 µM, first compound 0.0949 µM) of 91.2%. The viability, T/C (second compound 0.00316 µM, first compound 0.3 µM) was 62.1%, the viability, T/C (second compound 0.00316 µM, first compound 0.949 µM) was 62.1% and the viability, T/C (second compound 0.00316 µM, first compound 3 µM) was 71.1%. The viability, T/C (second compound 0.01 µM, first compound 0.00949 µM) was 100%, the viability, T/C (second compound 0.01 µM, first compound 0.03 µM) was 120% and the viability, T/C (second compound 0.01 µM, first compound 0.0949 µM) was 102%. It also gave a viability, T/C (second compound 0.01 µM, first compound 0.3 µM) of 68%, a viability, T/C (second compound 0.01 µM, first compound 0.949 µM) of 55.3% and a viability, T/C (second compound 0.01 µM, first compound 3 µM) of 61%. The viability, T/C (second compound 0.0316 µM, first compound 0.00949 µM) was 83.8%, the viability, T/C (second compound 0.0316 µM, first compound 0.03 µM) was 91.4% and the viability, T/C (second compound 0.0316 µM, first compound 0.0949 µM) was 96.8%. For the same molecule, the viability, T/C (second compound 0.0316 µM, first compound 0.3 µM) was 81.5%, the viability, T/C (second compound 0.0316 µM, first compound 0.949 µM) was 84.5% and the viability, T/C (second compound 0.0316 µM, first compound 3 µM) was 60.8%. The viability, T/C (second compound 0.1 µM, first compound 0.00949 µM) was 87.7%, the viability, T/C (second compound 0.1 µM, first compound 0.03 µM) was 84.5% and the viability, T/C (second compound 0.1 µM, first compound 0.0949 µM) was 87.7%. It also gave a viability, T/C (second compound 0.1 µM, first compound 0.3 µM) of 72.6%, a viability, T/C (second compound 0.1 µM, first compound 0.949 µM) of 74.5% and a viability, T/C (second compound 0.1 µM, first compound 3 µM) of 64.8%. For the same molecule, the viability, T/C (second compound 0.316 µM, first compound 0.00949 µM) was 96.9%, the viability, T/C (second compound 0.316 µM, first compound 0.03 µM) was 85.3% and the viability, T/C (second compound 0.316 µM, first compound 0.0949 µM) was 82.1%. For the same molecule, the viability, T/C (second compound 0.316 µM, first compound 0.3 µM) was 71.4%, the viability, T/C (second compound 0.316 µM, first compound 0.949 µM) was 42.8% and the viability, T/C (second compound 0.316 µM, first compound 3 µM) was 64.2%. It also gave a viability, T/C (second compound 1 µM, first compound 0.00949 µM) of 103%, a viability, T/C (second compound 1 µM, first compound 0.03 µM) of 80.8% and a viability, T/C (second compound 1 µM, first compound 0.0949 µM) of 69.4%. For the same molecule, the viability, T/C (second compound 1 µM, first compound 0.3 µM) was 74.5%, the viability, T/C (second compound 1 µM, first compound 0.949 µM) was 92.5% and the viability, T/C (second compound 1 µM, first compound 3 µM) was 75.7%.

For Cn1ncnc1[C@H]1c2n[nH]c(=O)c3cc(F)cc(c23)N[C@@H]1c1ccc(F)cc1, the viability, T/C (compound 0.000316 µM) was 87.9% and 91% and 92%, the viability, T/C (compound 0.001 µM) was 97.2% and 98.2% and 79.8% and the viability, T/C (compound 0.00316 µM) was 99.3% and 92.3% and 101%. For the same molecule, the viability, T/C (compound 0.01 µM) was 82.6% and 96.8% and 94.9%, the viability, T/C (compound 0.0316 µM) was 90.9% and 81.5% and 68.7% and the viability, T/C (compound 0.1 µM) was 96.8% and 78.6% and 84.5%. The IC50 (curve of compound) was over 0.1 µM.

O=C(c1cc(Cc2n[nH]c(=O)c3ccccc23)ccc1F)N1CCN(C(=O)C2CC2)CC1 + Cc1c(S(C)(=O)=O)c(-c2cc(F)cc(N3CCN(c4ccc(NS(=O)(=O)c5ccc(NC(CCN6CCC(C(=O)OCCCP(=O)(O)O)CC6)CSc6ccccc6)c(S(=O)(=O)C(F)(F)F)c5)cc4)CC3)c2)c(-c2ccc(Cl)cc2)n1C(C)C was tested, and the IC50 [1] was over 10 µM, the IC50 [2] was over 10 µM and the IC50 [3] was over 10 µM. For the same molecule, the IC50 [4] was over 10 µM, the IC50 (curve of first compound, second compound 3.16 µM) was over 10 µM and the IC50 (curve of first compound, second compound 10 µM) was over 10 µM. The viability, T/C (second compound 0.0316 µM, first compound 0.0316 µM) was 68.1%, the viability, T/C (second compound 0.0316 µM, first compound 0.1 µM) was 92.3% and the viability, T/C (second compound 0.0316 µM, first compound 0.316 µM) was 77.4%. It also gave a viability, T/C (second compound 0.0316 µM, first compound 1 µM) of 104%, a viability, T/C (second compound 0.0316 µM, first compound 3.16 µM) of 91.5% and a viability, T/C (second compound 0.0316 µM, first compound 10 µM) of 68.3%. The viability, T/C (second compound 0.1 µM, first compound 0.0316 µM) was 92.1%, the viability, T/C (second compound 0.1 µM, first compound 0.1 µM) was 107% and the viability, T/C (second compound 0.1 µM, first compound 0.316 µM) was 102%. It also gave a viability, T/C (second compound 0.1 µM, first compound 1 µM) of 75.8%, a viability, T/C (second compound 0.1 µM, first compound 3.16 µM) of 58.7% and a viability, T/C (second compound 0.1 µM, first compound 10 µM) of 78.3%. The viability, T/C (second compound 0.316 µM, first compound 0.0316 µM) was 100%, the viability, T/C (second compound 0.316 µM, first compound 0.1 µM) was 129% and the viability, T/C (second compound 0.316 µM, first compound 0.316 µM) was 77.8%. It also gave a viability, T/C (second compound 0.316 µM, first compound 1 µM) of 87.2%, a viability, T/C (second compound 0.316 µM, first compound 3.16 µM) of 101% and a viability, T/C (second compound 0.316 µM, first compound 10 µM) of 62.9%. It also gave a viability, T/C (second compound 1 µM, first compound 0.0316 µM) of 95.4%, a viability, T/C (second compound 1 µM, first compound 0.1 µM) of 100% and a viability, T/C (second compound 1 µM, first compound 0.316 µM) of 71.6%. For the same molecule, the viability, T/C (second compound 1 µM, first compound 1 µM) was 73.8%, the viability, T/C (second compound 1 µM, first compound 3.16 µM) was 93.1% and the viability, T/C (second compound 1 µM, first compound 10 µM) was 100%. For the same molecule, the viability, T/C (second compound 3.16 µM, first compound 0.0316 µM) was 76.5%, the viability, T/C (second compound 3.16 µM, first compound 0.1 µM) was 94% and the viability, T/C (second compound 3.16 µM, first compound 0.316 µM) was 74.8%. It also gave a viability, T/C (second compound 3.16 µM, first compound 1 µM) of 84.1%, a viability, T/C (second compound 3.16 µM, first compound 3.16 µM) of 70.7% and a viability, T/C (second compound 3.16 µM, first compound 10 µM) of 86.6%. It also gave a viability, T/C (second compound 10 µM, first compound 0.0316 µM) of 71.6%, a viability, T/C (second compound 10 µM, first compound 0.1 µM) of 101% and a viability, T/C (second compound 10 µM, first compound 0.316 µM) of 58.2%. For the same molecule, the viability, T/C (second compound 10 µM, first compound 1 µM) was 72.9%, the viability, T/C (second compound 10 µM, first compound 3.16 µM) was 65.2% and the viability, T/C (second compound 10 µM, first compound 10 µM) was 57.6%.
